# Measurements as given in patent publication US20090281166A1, “Treatment of Cancer by Inhibition of HSP27” (THE UNIVERSITY OF BRITISH COLUMBIA, priority 2008, published 2009).
# How the values were obtained:
# Akt = assay: Western blot after siAkt or GSK690693C treatment in LNCaP cells; format: cell-based, human
# Experimental: Twenty-four hours after culturing in 10 cm dishes at 7×10^5 cells per dish, Hsp27 siRNA (siHsp27) or scrambled siRNA (Scr) duplexes were transfected into cells. Briefly, the RNA duplex was diluted in Opti-MEN® serum-free medium and Oligofectamin (Invitrogen-Life Technologies). After 20 min, cells were transfected at 37? for 4-6 h and then were placed in standard medium. Forty-eight hours after transfection, cells were harvested and were analyzed in each experiment. To knockdown Akt, Akt1 siRNA (siAkt) duplexes (Cell signaling) were used. Twenty-four hours after transfection for 24 h, cells were harvested and then were analyzed as well. An siRNA duplex corresponding to the human Hsp27 site (sequence of one strand 5′-[…]-3′, SEQ ID NO: 2; Dharmacon, Lafayette, Colo.) was used. […]
# Proteins (20-40 μg/lane) extracted in RIPA buffer from cells, were electrophoresed in SDS-polyacrylamide gels (SDS/PAGE) and transferred to PDVF membranes (Milipore, Bedford, Mass.) by a wet transfer method. […] Bands were detected by using an enhanced chemiluminescence Western blotting analysis system (Amersham Life Science, Arlington Heights, Ill.).
# LNCaPHsp27 and LNCaP with empty vector (LNCaPmock) cells were assessed 24 h after culture. Cell lysates were collected 24 hours after culture and bands were detected with the indicated antibodies by Western blot assay. […]
# PC-3 cells = assay: Combination treatment with siHsp27 and LY-294002 in PC-3 cells; format: cell-based, human
# Experimental: LY-294002 (2-(4-morpholinyl)-8-phenyl-4H-1-benzopyran-4-one) is a selective phosphatidylinositol 3-kinase (PI3K) inhibitor. Combination treatment with siHsp27 and LY-294002 treatment was assessed in PC-3 cells.
# hsp27 [1] = details: Tanaka et al., Int J Gynecol Cancer 2004; cited from earlier work
# Hsp27 [2] = details: preclinical studies, cited from earlier work
molecule,measurement,setting,value
CCn1c(-c2nonc2N)nc2c(C#CC(C)(C)O)ncc(OC[C@H]3CCCNC3)c21 [GSK690693C],phospho-Akt level (Western blot),Akt,up-regulation of phospho-Akt
same,phospho-GSK-3B and phospho-PEA15 levels (Western blot),Akt,dose-dependent decrease of phospho-GSK-3B and phospho-PEA15
"O=c1cc(N2CCOCC2)oc2c(-c3ccccc3)cccc12 [LY-294002, 2-(4-morpholinyl)-8-phenyl-4H-1-benzopyran-4-one]",PTEN expression,PC-3 cells,reduced PTEN expression
same,effect on growth inhibition by Hsp27 knockdown,PC-3 cells; combination with siHsp27,reduced the growth inhibitory effect by Hsp27 knockdown in dose-dependent manner
CC(=O)O[C@H]1C(=O)[C@@]2(C)[C@H]([C@H](OC(=O)c3ccccc3)[C@]3(O)C[C@H](OC(=O)[C@H](O)[C@@H](NC(=O)c4ccccc4)c4ccccc4)C(C)=C1C3(C)C)[C@]1(OC(C)=O)CO[C@@H]1C[C@@H]2O [Paclitaxel],hsp27 expression,hsp27 [1],inhibitor of hsp27 expression
"OGX-427: antisense oligonucleotide targeting hsp27, gggacgcggc gctcggtcat, SEQ ID No. 1, described in U.S. Pat. No. 7,101,991 (antisense GGGACGCGGCGCTCGGTCAT; listed as DNA, chemistry not given here; listed as Homo sapiens)",chemosensitization,Hsp27 [2]; combination with cytotoxic drugs,acts as a chemosensitizer in combination with several cytotoxic drugs including docetaxel
same,anti-tumor activity,Hsp27 [2]; single agent,has single agent anti-tumor activity
same,apoptosis in human cancer cell lines,Hsp27 [2],induces apoptosis in several human cancer cell lines
same,levels of Hsp27,Hsp27 [2],significantly decreases levels of Hsp27
